From patent publication US10034853B2, “PPAR α/γ dual agonist and its application” (Shanghai University of Traditional Chinese Medicine, priority 2013, dated 2018)
“Also recorded” adds a separate entry of the source. Like-named read-outs stand apart in the source and are kept apart here.

Assays:
PPAR γ = molecular target: T1, PPAR γ (Mus musculus, UniProt P37238); experiment: Dual-luciferase reporter gene assay, PPAR γ transcriptional activity in 293T cells; assay type: cell-based; conditions: for transcription activity on PPAR γ relative to compound A: 293T reporter assay
T1 construct: pCMX-Gal-mPPAR γ LBD plasmids; expressed in transfected cells; host or cells: 293T cells (ATCC)
T1 sequence (P37238 238-503 limits assumed): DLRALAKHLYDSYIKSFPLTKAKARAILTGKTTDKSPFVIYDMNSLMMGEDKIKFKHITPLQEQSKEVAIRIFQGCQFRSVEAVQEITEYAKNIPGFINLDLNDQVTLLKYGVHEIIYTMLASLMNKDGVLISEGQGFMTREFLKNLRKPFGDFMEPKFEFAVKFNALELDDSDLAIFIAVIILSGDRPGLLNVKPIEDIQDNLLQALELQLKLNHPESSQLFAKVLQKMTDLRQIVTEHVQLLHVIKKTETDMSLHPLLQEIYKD
Protocol: Reporter gene assay was used to detect the impacts of the compounds A, B and C on the transcriptional activities of PPAR γ and PPAR α. The inventors used the PPAR-α, α-LBD, γ and γ-LBD plasmids to detect the impacts of bavachinin on transcription activities of these two PPAR subtype. All the transfections were added to 293T cells (ATCC) overnight and then removed. The positive agonists or the test compounds were diluted in fresh media, and then added into the cells. After incubating for another 24 hours, the cells were harvested to detect luciferase activity.
293T cells were cultured in Dulbecco's modified Eagle's medium (DMEM) with 10% fetal bovine serum and 1% Penicillin/Streptomycin anti-DMEM high glucose medium at 37° C. and 5% CO2. 293T cells in log phase were seeded into 48-well plate with the cell density of 1×10^5˜2×10^5 cells/mL.
(§1) pCMX-Gal-mPPAR γ LBD plasmids, Gal4 reporter vector MH100×4-TK-Luc recombinant plasmids and renilla luciferase internal reference plasmids; PPAR α-LBD plasmids; PPAR γ plasmids; PPAR α plasmids.
When the cells grew to a density of 50 to 80% after seeded in plate overnight, it's good to carry out the transfection. All the transfections, which included 10 μg of total plasmids and 15 μL FuGENE-HD transfection reagent per mL of DMEM, were placed at room temperature for 15 minutes and then added to 293T cells (ATCC) overnight and then removed.
After incubating overnight, the compound A or B or C or positive PPAR γ/α agonists rosiglitazone (as the specific agonistic ligand of PPAR γ) or WY14643 (as the specific agonistic ligand of PPAR α) with different concentrations diluted by complete medium (2, 5, 10, 25, 50 μmol/L) were added into cells. The final concentration of positive agonists was 20 μmol/L).
(§2) After 24 hours, cells were washed twice with PBS to remove the remaining cell culture medium; 65 μL lysis buffer was added into each well and oscillated by the shaker for 15 minutes until cell lysis was complete. Finally the cell lysate was transferred into a 1.5 mL centrifuge tube; The cell lysate was centrifuged at 5000 rpm for 5 minutes and then 10 μL supernatant was taken to a new centrifuge tube for testing.
(§3) We conducted the luciferase reporter assay using Dual-Luciferase Reporter Assay System (Promega, USA). The transfection efficiency was normalized using the internal reference renilla luciferase activity. All transfection experiments were independently repeated for at least three times, with each experimental group having at least two deputy holes.
(§4) The Bio-Tek, Synergy HT multifunctional microplate reader was used to detect the fluorescence intensity of firefly and renilla. After normalizing via the internal reference renilla luciferase activity, the relative luciferase activity was expressed by the ratio of the fluorescence intensity of firefly luciferase and renilla luciferase.
(§5) Data were expressed as mean±standard error of mean (SEM). One-way ANOVA was used to analyze statistically differences between groups with LSD test for multiple comparisons using SPSS 16.0. The EC50 values were calculated using GraphPad Prism 5.0. A P value≤0.05 was regarded as statistically significant different.

PPAR α = molecular target: T2, PPAR α (Homo sapiens, UniProt Q07869); experiment: Dual-luciferase reporter gene assay, PPAR α transcriptional activity in 293T cells; assay type: cell-based; conditions: for EC50: 293T cells, luciferase reporter, 24 hours incubation; for transcription activity on PPAR α relative to compound A: 293T reporter assay
T2 construct: PPAR α-LBD plasmids; expressed in transfected cells; host or cells: 293T cells (ATCC)
T2 sequence (Q07869 239-466 limits assumed): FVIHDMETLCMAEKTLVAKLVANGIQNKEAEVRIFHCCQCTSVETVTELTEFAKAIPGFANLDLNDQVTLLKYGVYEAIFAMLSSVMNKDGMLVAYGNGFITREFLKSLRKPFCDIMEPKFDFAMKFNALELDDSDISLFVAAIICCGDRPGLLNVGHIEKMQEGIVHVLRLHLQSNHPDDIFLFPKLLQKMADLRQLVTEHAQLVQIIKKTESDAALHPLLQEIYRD
Protocol: The inventors used the PPAR-α, α-LBD, γ and γ-LBD plasmids to detect the impacts of bavachinin on transcription activities of these two PPAR subtype. […] The positive agonists or the test compounds were diluted in fresh media, and then added into the cells. After incubating for another 24 hours, the cells were harvested to detect luciferase activity.
as §1
When the cells grew to a density of 50 to 80% after seeded in plate overnight, it's good to carry out the transfection.
The final concentration of positive agonists was 20 μmol/L).
as §2, §3, §4, §5

[1] = system: PPAR α/γ target genes in HepG2 cells; experiment: Real-time PCR of PPAR α/γ target genes in HepG2 cells; assay type: cell-based; conditions: 24 hours, 25 μM (stated for compound A); for expression of PPAR α/γ target genes (GLUT4, CD36, LPL, Fasn, ACO): β-actin reference
Protocol: Used Real-time fluorescence quantitative PCR (Real-time PCR) to detect how the compounds A, B and C regulate the expression of PPAR γ/α-related target genes in liver HepG2 cells.
HepG2 cells was grown in Dulbecco's modified Eagle's medium (DMEM, HyClone) with 10% fetal bovine serum (FBS, HyClone) and 1% Penicillin/Streptomycin (Gibco) at 37° C. and 5% CO2. HepG2 cells at logarithmic growth phase were plated in 12-well plates with the cell density was 5×10^4 cells/mL, and then were treated by compound A for 24 hours. Quantitative PCR analysis was performed using β-actin as an endogenous reference.
When the density of HepG2 cells was grown about 60%, compound A (dissolved in DMSO as a stock solution) diluted with complete medium was added into cells. The final concentration was 25 μM (μmol/L).
After 24 hours, total RNA of treated HepG2 cells was isolated using TRIzol reagent (Takara, Japan) according to the manual.
The total RNA was reversely transcribed to cDNA applying the reverse transcription kit (Thermo, Mass., USA). We established 20 μL reverse transcription reaction system according to Table 2. The reaction system was mixed and placed at room temperature (25° C.) for 5 minutes, incubated at 42° C. for 1 hour, incubated at 70° C. for 5 minutes. cDNA was stored at −20° C.
All primers were designed by the Prime 3.0 software. Briefly, after an initial denaturation at 95° C. for 10 minutes, the cDNA was amplified by 40 cycles of PCR (95° C., 15 seconds; 60° C., 60 seconds). All experiments were repeated at least three times independently.

db/db mice = experiment: Blood glucose and glucose tolerance in db/db mice; assay type: in vivo; conditions: for reduction of fasting blood glucose compared with vehicle: after 6 days treatment, intragastric
Protocol: Mice were fasted 8 hours before subjected to a dose of 1 g glucose per kg body weight. Blood was taken from tail and measured at 0, 15, 30, 60 and 90 minutes. The data were expressed with means±SE, n=9 for each group.
The db/db mice with leptin receptor mutation begin to show the symptoms of obesity, hyperlipidemia, insulin resistance, hyperglycemia and others at 4 weeks. This is an ideal kind of mice model for obese diabetic mice.
The db/db mice were kept in polycarbonate cages under regulated temperature (22-23° C.) and controlled humidity (50%-60%) with 12-hour light/12-hour dark cycle. All the mice were allowed to adapt to the standard housing conditions. Mice and food were weighed regularly to investigate the changes in body weight and food intake.
During the experimental period, the eight-week old db/db mice were treated with water and a normal standard cylindrical diet. […] An intraperitoneal glucose tolerance test (IPGTT) was carried out after one week of treatment. Mice were fasted 8 hours before subjected to a dose of 1 g glucose per kg body weight. Blood was taken from tail at 0, 15, 30, 60, and 90 minutes. After 11 days of treatment, 0.75 U/kg body weight of insulin was injected intraperitoneally to perform intraperitoneal insulin tolerance test (IPITT). Blood was taken from tail at 0, 15, 30, 60, 90 and 120 minutes. After 20 days, all the db/db mice were anaesthetized by pentobarbital sodium after 8-hour fast. Blood and tissues were collected and stored at −80° C. for the further analysis.

3T3-L1 cells = experiment: 3T3-L1 preadipocyte differentiation (oil red O staining); assay type: cell-based; conditions: for adipocyte differentiation activity relative to compound A: 25 μM vs compound A at 5 μM
Protocol: 3T3-L1 fibroblast cell line is widely used for adipocyte differentiation models. […] For adipocyte differentiation, 3T3-L1 cells were seeded into 12-well plate to full confluence for 2 days and then incubated with completed medium containing 10 μg/mL human insulin (Sigma-Aldrich), 1 μM dexamethasone (Sigma-Aldrich) and the test compounds at 37° C. and 7.5% CO2. After 2 days of induction, the medium was replaced with a maintenance medium (completed medium including 10 μg/mL insulin and the test compounds) for additional 2 days (Day 0-Day 2). Thereafter, the medium was refreshed with fresh medium with the test compounds for 4 days (Day 2-Day 6). The test compounds dissolved in dimethylsulfoxide (DMSO) was diluted by the completed medium (final DMSO concentration, 0.1%) at indicated concentration. rosiglitazone was used as a positive compound. The 3T3-L1 cells were washed with PBS twice, fixed with 10% formalin at room temperature for 10 minutes and then stained with oil red O (Sigma-Aldrich, St. Louis, Mo.) at 37° C. for 30 minutes. The pictures were taken using an Olympus microscope (Tokyo, Japan).

[2] = system: diet-induced obese (dio) C57BL/6J mice; experiment: Lipid disorders in diet-induced obese (dio) mice; conditions: for effect on food intake / reduction of serum triglyceride (TG) levels compared to HFD group / effect on body weight: 3-week treatment; for reduction of serum triglyceride (TG) levels compared to HFD group: compound A 2 g per kg HFD; for effect on body weight: vs HFD group
Protocol: For the therapy study, the six-week old female C57BL/6J mice were fed with high-fat diet (HFD, 60% of calories from fat) for 12 weeks to induce obesity and insulin resistance (DIO). The mice were divided into 3 groups according to body weight and fasting blood glucose (n=9, 7, 7, 7). […] After 21 days of dosing, we took blood from heart of anaesthetized fasted 10-hour mice. Tissues were collected and stored at −80° C.
Serum was used for all the analysis of blood parameters.

[3] = 100 mg/kg/d stated for compound A
[4] = 293T cells, luciferase reporter, 24 hours incubation, read-out: EC50 (μM) PPAR γ

| Structure (SMILES) | expression of PPAR α/γ themselves [1] | expression of PPAR α/γ target genes (GLUT4, CD36, LPL, Fasn, ACO) [1] | reduction of fasting blood glucose compared with vehicle (db/db mice; [3]) | effect on food intake [2] | reduction of serum triglyceride (TG) levels compared to HFD group [2] | effect on body weight [2] | EC50 (PPAR γ; [4]) | transcription activity on PPAR γ relative to compound A (PPAR γ) | EC50 (PPAR α; read-out: EC50 (μM) PPAR α) | transcription activity on PPAR α relative to compound A (PPAR α) | adipocyte differentiation activity relative to compound A (3T3-L1 cells; 3T3-L1 cells) | other results |
| --- | --- | --- | --- | --- | --- | --- | --- | --- | --- | --- | --- | --- |
| COc1cc2c(cc1CC=C(C)C)C(=O)C[C@@H](c1ccc(O)cc1)O2 [compound A, bavachinin] | did not effect | significantly increased | about 20% | without affecting; also recorded: did not affect | around 23% | without affecting; also recorded: did not increase |  |  |  |  |  | EC50 (PPAR γ): 8.6 µM; PPAR γ transactivation compared with rosiglitazone (ROS) (PPAR γ; compound at 25 μM vs rosiglitazone at 20 μM): nearly equal to PPAR γ agonist rosiglitazone (ROS) at 20 μM; EC50 (PPAR α; EC50 (μM) PPAR α): 17.3 µM; PPAR α transactivation compared with full agonist WY14643 (PPAR α; WY14643 final concentration 20 μmol/L): more transactivation; glucose tolerance (IPGTT) (db/db mice; 100 mg/kg/d, 1 g/kg glucose after 8 hours fast): improved; 3T3-L1 adipocyte differentiation (3T3-L1 cells; 1 μM, with insulin and dexamethasone, 6 days, oil red O): induced 3T3-L1 cell differentiation and lipid droplets formation; 3T3-L1 adipocyte differentiation (3T3-L1 cells; 10 μM, with insulin and dexamethasone, 6 days, oil red O): almost fully differentiated; 3T3-L1 adipocyte differentiation (3T3-L1 cells; 25 μM, with insulin and dexamethasone (FIG. 5C)): induced to differentiate into adipocytes; potency on adipocyte differentiation relative to rosiglitazone (3T3-L1 cells; 3T3-L1 cells): as potent as rosiglitazone; serum TG levels in contrast to HFD group ([2]; FIG. 6D): significantly reduced |
| CC(=O)Oc1ccc(C2CC(=O)c3cc(CC=C(C)C)c(OC(C)=O)cc3O2)cc1 (stereo not drawn) [compound B] | did not effect | significantly increased | about 10% | without affecting | 20% | without affecting | 18.8 µM | less than that of compound A | 28.5 µM | less than that of compound A | nearly equal to the activity of compound A at 5 μM |  |
| COc1cc2c(cc1CC=C(C)C)C(=O)CC(c1ccc(OC(C)=O)cc1)O2 (stereo not drawn) [compound C] | did not effect | significantly increased | ~8% | without affecting | 12% | without affecting | 12.3 µM | less than that of compound A | 12.9 µM | less than that of compound A | nearly equal to the activity of compound A at 5 μM |  |
| CN(CCOc1ccc(CC2SC(=O)NC2=O)cc1)c1ccccn1 (stereo not drawn) [rosiglitazone, reference compound] |  |  |  |  |  |  |  |  |  |  |  | reduction of fasting blood glucose compared with vehicle (db/db mice; rosiglitazone 5 mg/kg/d): 5% |
